Tested on: human dermal fibroblasts
Experiment: Human dermal fibroblast cells (hDFC) proliferation, cell viability assay (CellTiter-Glo, manual cell counting); note: test concentration or dose not given here
Format: cell-based
Settings: hDFCs proliferation; control is DMSO

Row | Compound | Activity (Percent Increase Proliferation of hFDPCs (%))
1 | CC(NC(=O)CNC(=O)c1cccs1)c1ccccc1 (centres unmarked) [VI-1, N-[2-oxo-2-(1-phenylethylamino)ethyl]thiophene-2-carboxamide] | D (increased proliferation of hFDPCs equals to or larger than 8%)
2 | CC1=NN(C=O)C(C)(C)C1 [VII-5, 3,5,5-trimethyl-4H-pyrazole-1-carbaldehyde] | D (increased proliferation of hFDPCs equals to or larger than 8%)
3 | COc1ccc(CNC(=O)C(=O)NCCCn2ccnc2)cc1 [III-2, N-(3-imidazol-1-ylpropyl)-N′-[(4-methoxyphenyl)methyl]oxamide] | D (increased proliferation of hFDPCs equals to or larger than 8%)
4 | Nn1c(SCC(=O)N2CCCC2)nnc1C1CCCCC1 [I-4, 2-[(4-amino-5-cyclohexyl-1,2,4-triazol-3-yl)sulfanyl]-1-pyrrolidin-1-ylethanone] | C (increased proliferation of hFDPCs equals to or larger than 4% and less than 8%)
5 | CC(NC(=O)C(=O)NC(C)c1ccccc1)c1ccccc1 (centres unmarked) [III-4, N,N′-bis(1-phenylethyl)oxamide] | B (increased proliferation of hFDPCs equals to or larger than 1% and less than 4%)
6 | C=CCn1c(SCC(=O)N2CCCCC2)nnc1-c1ccncc1 [I-6, 1-piperidin-1-yl-2-[(4-prop-2-enyl-5-pyridin-4-yl-1,2,4-triazol-3-yl)sulfanyl]ethanone] | C (increased proliferation of hFDPCs equals to or larger than 4% and less than 8%)
7 | CCOC(Cn1ccnc1)OCC [VII-30, 1-(2,2-diethoxyethyl)imidazole] | D (increased proliferation of hFDPCs equals to or larger than 8%)
8 | COc1ccc(CNC(=O)C(=O)NC(C)c2ccccc2)cc1 (centres unmarked) [III-3, N-[(4-methoxyphenyl)methyl]-N′-(1-phenylethyl)oxamide] | B (increased proliferation of hFDPCs equals to or larger than 1% and less than 4%)
9 | CC(NC(=O)COc1ccc(CN(C)S(C)(=O)=O)cc1)c1ccccc1 (centres unmarked) [VII-26, 2-[4-[[methyl(methylsulfonyl)amino]methyl]phenoxy]-N-(1-phenylethyl)acetamide] | D (increased proliferation of hFDPCs equals to or larger than 8%)
10 | CCC(N)Cn1ccnc1 (centres unmarked) [VII-29, 1-imidazol-1-ylbutan-2-amine] | A (increased proliferation of hFDPCs of less than 1%)
11 | CC(C)CC(=O)NC(C)c1ccccc1 (centres unmarked) [II-5, 3-methyl-N-(1-phenylethyl)butanamide] | D (increased proliferation of hFDPCs equals to or larger than 8%)
12 | Cc1ccsc1C(=O)NC(C)C [VI-2, 3-methyl-N-propan-2-ylthiophene-2-carboxamide] | B (increased proliferation of hFDPCs equals to or larger than 1% and less than 4%)
13 | NC12CN3CN(CN(C3)C1)C2 [VII-4, 1,3,5-triazatricyclo[3.3.1.13,7]decan-7-amine] | D (increased proliferation of hFDPCs equals to or larger than 8%)
14 | oxetan-3-amine [VII-13] | D (increased proliferation of hFDPCs equals to or larger than 8%)
15 | CNC(=O)C(CC(C)C)NC(=O)c1sccc1OC (centres unmarked) [VI-3, 3-methoxy-N-[4-methyl-1-(methylamino)-1-oxopentan-2-yl]thiophene-2-carboxamide] | D (increased proliferation of hFDPCs equals to or larger than 8%)
16 | CCCC(=O)NCc1ccc(OC)cc1 [II-2, N-[(4-methoxyphenyl)methyl]butanamide] | B (increased proliferation of hFDPCs equals to or larger than 1% and less than 4%)
17 | O=C(O)CN1CCC(NC(=O)C2CCCc3c2[nH]c2ccccc32)CC1 (centres unmarked) [IV-5, 2-[4-(2,3,4,9-tetrahydro-1H-carbazole-1-carbonylamino)piperidin-1-yl]acetic acid] | D (increased proliferation of hFDPCs equals to or larger than 8%)

From US12564547B2, “Compositions, formulations, and methods for skin treatment” (Oddity Labs, LLC, priority 2022, dated 2026)
